What was measured:
[1] = system: IFN-gamma-secreting T-cells; experiment: Naïve T-cell priming, IFN-gamma-secreting T-cells in splenocytes, TKI started before immunization; conditions: 200 mg/kg daily oral gavage prior to and/or concurrently with cytokine-expressing cancer immunotherapy; ovalbumin-specific peptide stimulation
[2] = system: ovalbumin-specific CD8 T cells; experiment: Expansion of adoptively transferred OT-1 transgenic T cells, tetramer/CD8 FACs; conditions: 200 mg/kg daily oral gavage from Day-7 for 20 days plus GM.ova on day 3; Day 9; relative to immunotherapy alone
[3] = system: IFN-gamma-secreting T-cells; experiment: Activated T-cells, IFN-gamma-secreting T-cells in splenocytes, TKI started after immunization; assay type: in vivo, C57Bl6 mice; conditions: 200 mg/kg daily oral gavage from Day 15, post immunotherapy (Days 3 and 17); spleens Day 31
From the text: (§1) Mice were sacrificed on Day 31 and the spleens were removed and evaluated for induction of a primary T-cell response by quantifying the number of IFN-gamma-secreting T-cells per 5×10^5 splenocytes when stimulated using an ovalbumin-specific peptide.
as §1

[4] = molecular target: T1, Pyk2 (Homo sapiens, UniProt Q14289); experiment: Western blot of phosphorylated Pyk2 in stimulated Jurkat cells; assay type: cell-based; conditions: anti-CD3 10 minutes, increasing concentrations 0, 12.5, 50 mcg/ml
T1 construct: Nutrients-starved human T cell clones (Jurkat cells) were stimulated; endogenous in cells; host or cells: Jurkat cells (human T cell line)
T1 sequence (Q14289 whole entry): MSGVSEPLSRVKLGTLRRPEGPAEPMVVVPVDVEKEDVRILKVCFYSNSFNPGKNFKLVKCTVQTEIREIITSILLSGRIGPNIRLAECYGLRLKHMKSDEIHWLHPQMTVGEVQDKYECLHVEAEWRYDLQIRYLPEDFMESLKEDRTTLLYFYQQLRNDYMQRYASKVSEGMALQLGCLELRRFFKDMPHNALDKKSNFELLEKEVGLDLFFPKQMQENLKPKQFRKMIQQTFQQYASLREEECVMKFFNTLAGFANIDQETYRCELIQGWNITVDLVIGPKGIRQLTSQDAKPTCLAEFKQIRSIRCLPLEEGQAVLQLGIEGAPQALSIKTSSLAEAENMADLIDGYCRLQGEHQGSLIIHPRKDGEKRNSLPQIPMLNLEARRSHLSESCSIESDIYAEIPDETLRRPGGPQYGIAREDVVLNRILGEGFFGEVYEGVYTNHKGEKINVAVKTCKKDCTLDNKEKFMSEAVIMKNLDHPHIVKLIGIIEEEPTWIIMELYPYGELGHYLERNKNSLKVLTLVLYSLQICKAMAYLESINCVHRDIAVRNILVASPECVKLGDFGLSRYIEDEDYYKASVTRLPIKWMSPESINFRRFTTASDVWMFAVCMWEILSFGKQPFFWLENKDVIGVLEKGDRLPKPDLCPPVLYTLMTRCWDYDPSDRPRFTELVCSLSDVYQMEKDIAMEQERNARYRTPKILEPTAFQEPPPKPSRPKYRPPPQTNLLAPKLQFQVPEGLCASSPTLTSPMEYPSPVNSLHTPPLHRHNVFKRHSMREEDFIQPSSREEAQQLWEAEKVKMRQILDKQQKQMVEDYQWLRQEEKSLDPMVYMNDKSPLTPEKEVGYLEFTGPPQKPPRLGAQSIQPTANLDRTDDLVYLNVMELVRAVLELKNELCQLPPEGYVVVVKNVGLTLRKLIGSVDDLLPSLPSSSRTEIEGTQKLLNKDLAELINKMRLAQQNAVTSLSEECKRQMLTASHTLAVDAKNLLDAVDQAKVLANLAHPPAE

[5] = molecular target: T2, Zap-70 (Homo sapiens, UniProt P43403); conditions: Jurkat cells, anti-CD3 10 minutes, increasing concentrations 0, 12.5, 50 mcg/ml
T2 sequence (P43403 1-619): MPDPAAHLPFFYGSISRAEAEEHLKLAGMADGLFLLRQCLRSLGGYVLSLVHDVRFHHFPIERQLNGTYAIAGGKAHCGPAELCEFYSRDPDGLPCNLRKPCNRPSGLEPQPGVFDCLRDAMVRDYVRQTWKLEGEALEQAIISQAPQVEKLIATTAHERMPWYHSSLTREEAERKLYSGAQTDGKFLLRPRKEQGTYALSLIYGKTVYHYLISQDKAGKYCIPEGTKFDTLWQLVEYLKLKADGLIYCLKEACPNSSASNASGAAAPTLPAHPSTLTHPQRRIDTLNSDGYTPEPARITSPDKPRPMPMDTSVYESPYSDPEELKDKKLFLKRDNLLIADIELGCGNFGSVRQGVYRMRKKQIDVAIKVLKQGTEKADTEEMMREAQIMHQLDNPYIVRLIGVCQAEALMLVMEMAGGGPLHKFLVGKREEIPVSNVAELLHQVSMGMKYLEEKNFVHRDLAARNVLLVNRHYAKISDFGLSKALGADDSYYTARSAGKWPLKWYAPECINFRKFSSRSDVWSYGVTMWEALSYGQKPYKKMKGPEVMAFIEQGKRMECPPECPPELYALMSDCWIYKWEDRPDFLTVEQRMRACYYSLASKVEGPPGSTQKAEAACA

amount of phosphorylated Pyk2 [4]	amount of phosphorylated Zap-70 [5]	Compound	number of primed naïve T-cells (IFN-gamma-secreting T-cells per 5×10^5 splenocytes) [1]	absolute number of ovalbumin-specific CD8 T cells in spleen and lymph nodes [2]	number of ova-antigen activated T-cells (IFN-gamma-secreting T-cells per 5×10^5 splenocytes) [3]
decreased	–	C#Cc1cccc(Nc2ncnc3cc(OCCOC)c(OCCOC)cc23)c1 [erolotinib, N-(3-ethynylphenyl)-6,7-bis(2-methoxy)-4-quinazolinamine]	decrease	increased	slight increase
decreased	decreased	COc1cc2ncnc(Nc3ccc(F)c(Cl)c3)c2cc1OCCCN1CCOCC1 [genfitinib]	decrease	increased	slight increase
